Experimental data: patent US20200199647A1, “ASSAY FOR SCREENING MODULATORS OF HOLOPHOSPHATASE ACTIVITY” (UNITED KINGDOM RESEARCH AND INNOVATION, priority 2017, published 2020)

Tests used:
R15B-PP1c = molecular target: T1, R15B-PP1c (Homo sapiens, UniProt Q5SWA1); assay: In vitro dephosphorylation of P-eIF2α by recombinant R15B-PP1c holophosphatase (10 nM PP1c); format: biochemical; details: PP1c 10 nM, 1 μM P-eIF2α, compounds 100 μM, 30° C., 16 h
T1 construct: PPP1R15B amino acids 340-698 (R15B); His6 (C); made in house; host or cells: E. coli BL21 pLysS (R15B, eIF2α); E. coli BL21/pGro7 (PP1c)
T1 sequence (P62136 7-330 partner limits assumed, one chain of several): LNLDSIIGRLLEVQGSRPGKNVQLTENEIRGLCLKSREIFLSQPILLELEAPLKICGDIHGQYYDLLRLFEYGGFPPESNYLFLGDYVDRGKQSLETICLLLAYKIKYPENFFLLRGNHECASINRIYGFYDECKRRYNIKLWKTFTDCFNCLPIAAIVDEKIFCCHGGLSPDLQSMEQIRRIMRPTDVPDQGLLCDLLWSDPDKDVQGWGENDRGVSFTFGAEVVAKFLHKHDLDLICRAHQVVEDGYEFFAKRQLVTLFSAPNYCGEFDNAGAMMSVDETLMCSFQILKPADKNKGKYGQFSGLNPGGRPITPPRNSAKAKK
Experimental: (§1) PP1c was diluted to the appropriate concentration (as indicated in the figure legends) in dephosphorylation buffer immediately prior to use. Dephosphorylation reactions were carried out by pre-incubating diluted PP1c in the presence or absence of regulatory subunits (either […]), and/or compounds (all at 100 μM, except for Salubrinal which was used at 30 μM), for 15′ at RT. All compounds were diluted in DMSO, and DMSO vehicle was used in all control experiments.
The reaction was initiated by the addition of 1 μM P-eIF2α or ^33P Phosphorylase a substrates and then incubated at 30° C. for 16 h with shaking at 350 rpm. Reactions were stopped by addition of 4× Laemmli sample buffer. eIF2α samples were analyzed by immunoblotting or Phos-tag gels. P-eIF2α dephosphorylation was analysed by immunoblotting using anti-Phospho-eIF2α (SerS1) (#9721) (Cell Signaling) and anti-eIF2α (ab26197) (AbCam) antibodies. Samples in FIG. 8 and FIG. 16 were run on a 15% SuperSep Phos-tag acrylamide gel (Alpha Laboratories) and visualized by staining with InstantBlue Protein Stain.

R15A^N/R15B^C = molecular target: T2, R15A^N/R15B^C (Homo sapiens, UniProt O75807+Q5SWA1); assay: Dephosphorylation of P-eIF2α by chimeric holophosphatase PP1c-R15A^N/R15B^C; format: biochemical; details: PP1c 10 nM, compounds 100 μM, 30° C., 16 h
T2 construct: PPP1R15A amino acids 325-636 (R15A), 325-512 (R15A^N), and 513-636 (R15A^C); PPP1R15B amino acids 340-698 (R15B), 340-635 (R15B^N), and 636-698 (R15B^C); R15B^C (PPP1R15B amino acids 636-698); His6 (C); made in house; host or cells: E. coli BL21 pLysS (chimera, eIF2α); E. coli BL21/pGro7 (PP1c)
T2 sequence (O75807+Q5SWA1 fused, stated change not applied): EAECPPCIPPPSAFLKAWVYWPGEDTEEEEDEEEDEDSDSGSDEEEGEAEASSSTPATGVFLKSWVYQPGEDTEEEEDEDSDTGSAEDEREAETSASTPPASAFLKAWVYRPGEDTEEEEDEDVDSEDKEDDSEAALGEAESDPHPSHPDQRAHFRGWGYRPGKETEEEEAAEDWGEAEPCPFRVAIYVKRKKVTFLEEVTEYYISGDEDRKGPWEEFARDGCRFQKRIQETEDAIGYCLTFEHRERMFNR
T2 sequence (P62136 7-330 partner): as the sequence (P62136 7-330 partner limits assumed, one chain of several) above
Source text: The cDNA encoding human PPP1R15A, PPP1R15B and PPP1R3A regulatory subunits were cloned into a pMAL-c5×-His vector, encoding for an amino-terminal MBP-tag and a carboxy-terminal His6-tag. […] R15A^N/R15B^C Chimeras were obtained by swapping the amino-terminal regions (R15^N) of R15A and R15B proteins described above, whilst maintaining the same carboxy-terminal regions (R15^C), to produce R15B^N/R15A^C and […] chimeras respectively, using In-Fusion cloning (Takara). All regulatory subunits were expressed in BL21 pLysS cells in Luria broth (LB) at 30° C. overnight. […] R15 proteins were stored at −80° C. and used within one month.
as §1
The reaction was initiated by the addition of 1 μM P-eIF2α or ^33P Phosphorylase a substrates and then incubated at 30° C. for 16 h with shaking at 350 rpm. Reactions were stopped by addition of 4× Laemmli sample buffer. eIF2α samples were analyzed by immunoblotting or Phos-tag gels. […]

R15B [1] = molecular target: T3, R15B (Homo sapiens, UniProt Q5SWA1); assay: Pull-down: binding of P-eIF2α to MBP-tagged R15B on amylose beads; details: 200 μM compound, 200 nM MBP-R15B, 1 μM P-eIF2α, 10 min 4° C.
T3 construct: PPP1R15B amino acids 340-698 (R15B); His6 (C); made in house; host or cells: E. coli BL21 pLysS
T3 sequence (Q5SWA1 340-698): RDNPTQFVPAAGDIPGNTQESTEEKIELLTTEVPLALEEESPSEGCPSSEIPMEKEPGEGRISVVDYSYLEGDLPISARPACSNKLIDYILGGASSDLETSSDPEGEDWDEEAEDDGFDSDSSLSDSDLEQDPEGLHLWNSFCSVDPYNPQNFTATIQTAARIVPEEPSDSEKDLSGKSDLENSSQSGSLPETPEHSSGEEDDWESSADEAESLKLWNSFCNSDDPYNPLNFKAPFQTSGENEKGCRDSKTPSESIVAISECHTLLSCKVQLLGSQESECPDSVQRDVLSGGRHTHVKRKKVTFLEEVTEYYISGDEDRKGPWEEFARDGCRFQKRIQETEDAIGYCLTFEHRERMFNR
Experimental: Purified MBP-tagged regulatory subunits (200 nM), P-eIF2α (1 μM), PP1c ([…]), and 200 μM compounds, or DMSO vehicle, were added as appropriate to 20 μl amylose magnetic bead, pre-equilibrated with interaction buffer (50 mM Tris (pH 7.4), 200 mM NaCl, 0.05% Tween20) in 200 μl volume. All protein dilutions were carried out in interaction buffer. 5% input sample was removed, and added to 4× Laemmli sample buffer for later analysis. The beads were incubated for 10′ at 4° C. The supernatant was removed, and the beads were washed thoroughly with interaction buffer and then resuspended with 50 μl of 2× Laemmli sample buffer. Samples were run on 4-12% NuPAGE Bis-Tris gels (Life Technologies) and analysed by immunoblotting, using anti-MBP HRP (E8038) (NEB), anti-eIF2α (ab26197) (AbCam) or anti-PPP1A (ab137512) (AbCam) antibodies.

R15B [2] = molecular target: T3, R15B; assay: Limited trypsin proteolysis of R15B (conformational change); details: 22° C.
Experimental: Reactions were allowed to proceed at 22° C. with shaking at 350 rpm. At time points 30 min, 1 h, 2 h or 3 h, 30 μl of sample was removed from the mix and digestion was stopped by addition of 10 μl of 16% SDS Laemmli sample buffer. Samples were run on 4-12% NuPAGE Bis-Tris gels (Life Technologies). Proteins were visualised by staining with InstantBlue Coomassie Protein Stain (Expedeon) protein stain.
Purified R15A and R15B were diluted to 3 μM in PBS, and incubated for 15′ at RT with 100 μM Raphin1, or DMSO vehicle. Reactions were initiated by addition of 5 nM of trypsin from bovine pancreas (Sigma), made up in PBS, and allowed to proceed for 5′ at 22° C., with shaking at 350 rpm. Digestion was stopped by addition of 4× Laemmli sample buffer and samples were run on 4-12% NuPAGE Bis-Tris gels (Life Technologies). Proteins were visualised by staining with InstantBlue Protein Stain.

SMILES: N=C(N)N/N=C/c1c(Cl)cccc1Cl [Guanabenz]
- inhibition of R15B-PP1c eIF2α holophosphatase (R15B-PP1c): not R15B-PP1c
- inhibition of R15A^N/R15B^C chimeric holophosphatase (R15A^N/R15B^C): inhibited
- effect on binding of eIF2α to R15B (R15B [1]): no such effect was observed
- sensitivity of R15B to trypsin proteolysis (R15B [2]; 100 μM compound, 0.5 μM R15B, 2.5 nM trypsin, 30 min to 3 h): No such protective effects

SMILES: NC(N)=N/N=C/c1cccc(Cl)c1Cl [Raphin1]
- inhibition of R15B-PP1c eIF2α holophosphatase (R15B-PP1c): selectively inhibited R15B-PP1c
- inhibition of R15A^N/R15B^C chimeric holophosphatase (R15A^N/R15B^C): not R15A^N/R15B^C
- effect on binding of eIF2α to R15B (R15B [1]): decreased the binding of eIF2α to R15B
- trypsin sensitivity of R15B (R15B [2]; 100 μM Raphin1, 3 μM R15B, 5 nM trypsin, 5 min): protected R15B
